# Measured values from ChEMBL document CHEMBL2380302, “Synthesis of 3-O-propargylated betulinic acid and its 1,2,3-triazoles as potential apoptotic agents” (Eur J Med Chem, 2013).
# Assays:
# [1] = tested on: HCT-15; experiment: Cytotoxicity against human HCT15 cells at 10 uM after 48 hrs by SRB assay; type: functional; conditions: HCT-15, 48 h, read-out: GI
# [2] = tested on: SF-295; experiment: Cytotoxicity against human SF295 cells at 10 uM after 48 hrs by SRB assay; type: functional; conditions: SF-295, 48 h, read-out: GI
# [3] = tested on: A549; experiment: Cytotoxicity against human A549 cells at 10 uM after 48 hrs by SRB assay; type: functional; conditions: A549, 48 h, read-out: GI
# [4] = tested on: MCF7; experiment: Cytotoxicity against human MCF7 cells at 10 uM after 48 hrs by SRB assay; type: functional; conditions: MCF7, 48 h, read-out: GI
# [5] = tested on: HEp-2; experiment: Cytotoxicity against human Hep2 cells at 10 uM after 48 hrs by SRB assay; type: functional; conditions: HEp-2, 48 h, read-out: GI
# [6] = tested on: PC-3; experiment: Cytotoxicity against human PC3 cells at 10 uM after 48 hrs by SRB assay; type: functional; conditions: PC-3, 48 h, read-out: GI
# [7] = tested on: DU-145; experiment: Cytotoxicity against human DU145 cells at 10 uM after 48 hrs by SRB assay; type: functional; conditions: DU-145, 48 h, read-out: GI
# [8] = tested on: HL-60; experiment: Cytotoxicity against human HL60 cells at 10 uM after 48 hrs by SRB assay; type: functional; conditions: HL-60, 48 h, read-out: GI
# [9] = tested on: THP-1; experiment: Cytotoxicity against human THP1 cells at 10 uM after 48 hrs by SRB assay; type: functional; conditions: THP-1, 48 h, read-out: GI
# [10] = tested on: HCT-15; experiment: Cytotoxicity against human HCT15 cells at 30 uM after 48 hrs by SRB assay; type: functional; conditions: HCT-15, 48 h, read-out: GI
# [11] = tested on: SF-295; experiment: Cytotoxicity against human SF295 cells at 30 uM after 48 hrs by SRB assay; type: functional; conditions: SF-295, 48 h, read-out: GI
# [12] = tested on: A549; experiment: Cytotoxicity against human A549 cells at 30 uM after 48 hrs by SRB assay; type: functional; conditions: A549, 48 h, read-out: GI
# [13] = tested on: MCF7; experiment: Cytotoxicity against human MCF7 cells at 30 uM after 48 hrs by SRB assay; type: functional; conditions: MCF7, 48 h, read-out: GI
# [14] = tested on: HEp-2; experiment: Cytotoxicity against human Hep2 cells at 30 uM after 48 hrs by SRB assay; type: functional; conditions: HEp-2, 48 h, read-out: GI
# [15] = tested on: PC-3; experiment: Cytotoxicity against human PC3 cells at 30 uM after 48 hrs by SRB assay; type: functional; conditions: PC-3, 48 h, read-out: GI
# [16] = tested on: DU-145; experiment: Cytotoxicity against human DU145 cells at 30 uM after 48 hrs by SRB assay; type: functional; conditions: DU-145, 48 h, read-out: GI
# [17] = tested on: HL-60; experiment: Cytotoxicity against human HL60 cells at 30 uM after 48 hrs by SRB assay; type: functional; conditions: HL-60, 48 h, read-out: GI
# [18] = tested on: THP-1; experiment: Cytotoxicity against human THP1 cells at 30 uM after 48 hrs by SRB assay; type: functional; conditions: THP-1, 48 h, read-out: GI
# [19] = tested on: HCT-15; experiment: Cytotoxicity against human HCT15 cells at 50 uM after 48 hrs by SRB assay; type: functional; conditions: HCT-15, 48 h, read-out: GI
# [20] = tested on: SF-295; experiment: Cytotoxicity against human SF295 cells at 50 uM after 48 hrs by SRB assay; type: functional; conditions: SF-295, 48 h, read-out: GI
# [21] = tested on: A549; experiment: Cytotoxicity against human A549 cells at 50 uM after 48 hrs by SRB assay; type: functional; conditions: A549, 48 h, read-out: GI
# [22] = tested on: MCF7; experiment: Cytotoxicity against human MCF7 cells at 50 uM after 48 hrs by SRB assay; type: functional; conditions: MCF7, 48 h, read-out: GI
# [23] = tested on: HEp-2; experiment: Cytotoxicity against human Hep2 cells at 50 uM after 48 hrs by SRB assay; type: functional; conditions: HEp-2, 48 h, read-out: GI
# [24] = tested on: PC-3; experiment: Cytotoxicity against human PC3 cells at 50 uM after 48 hrs by SRB assay; type: functional; conditions: PC-3, 48 h, read-out: GI
# [25] = tested on: HL-60; experiment: Cytotoxicity against human HL60 cells at 50 uM after 48 hrs by SRB assay; type: functional; conditions: HL-60, 48 h, read-out: GI
# [26] = tested on: DU-145; experiment: Cytotoxicity against human DU145 cells at 50 uM after 48 hrs by SRB assay; type: functional; conditions: DU-145, 48 h, read-out: GI
# [27] = tested on: THP-1; experiment: Cytotoxicity against human THP1 cells at 50 uM after 48 hrs by SRB assay; type: functional; conditions: THP-1, 48 h, read-out: GI
# [28] = tested on: HCT-15; experiment: Cytotoxicity against human HCT15 cells after 48 hrs by SRB assay; type: functional, cell-based; conditions: HCT-15, 48 h
# [29] = tested on: A549; experiment: Cytotoxicity against human A549 cells after 48 hrs by SRB assay; type: functional, cell-based; conditions: A549, 48 h
# [30] = tested on: SF-295; experiment: Cytotoxicity against human SF295 cells after 48 hrs by SRB assay; type: functional, cell-based; conditions: SF-295, 48 h
# [31] = tested on: MCF7; experiment: Cytotoxicity against human MCF7 cells after 48 hrs by SRB assay; type: functional, cell-based; conditions: MCF7, 48 h
# [32] = tested on: HEp-2; experiment: Cytotoxicity against human Hep2 cells after 48 hrs by SRB assay; type: functional, cell-based; conditions: HEp-2, 48 h
# [33] = tested on: PC-3; experiment: Cytotoxicity against human PC3 cells after 48 hrs by SRB assay; type: functional, cell-based; conditions: PC-3, 48 h
# [34] = tested on: DU-145; experiment: Cytotoxicity against human DU145 cells after 48 hrs by SRB assay; type: functional, cell-based; conditions: DU-145, 48 h
# [35] = tested on: HL-60; experiment: Cytotoxicity against human HL60 cells after 48 hrs by SRB assay; type: functional, cell-based; conditions: HL-60, 48 h
# [36] = tested on: THP-1; experiment: Cytotoxicity against human THP1 cells after 48 hrs by SRB assay; type: functional, cell-based; conditions: THP-1, 48 h
Structure (SMILES),inhibition of growth at 10 µM [1] [%],inhibition of growth at 10 µM [2] [%],inhibition of growth at 10 µM [3] [%],inhibition of growth at 10 µM [4] [%],inhibition of growth at 10 µM [5] [%],inhibition of growth at 10 µM [6] [%],inhibition of growth at 10 µM [7] [%],inhibition of growth at 10 µM [8] [%],inhibition of growth at 10 µM [9] [%],inhibition of growth at 30 µM [10] [%],inhibition of growth at 30 µM [11] [%],inhibition of growth at 30 µM [12] [%],inhibition of growth at 30 µM [13] [%],inhibition of growth at 30 µM [14] [%],inhibition of growth at 30 µM [15] [%],inhibition of growth at 30 µM [16] [%],inhibition of growth at 30 µM [17] [%],inhibition of growth at 30 µM [18] [%],inhibition of growth at 50 µM [19] [%],inhibition of growth at 50 µM [20] [%],further results
C=C(C)[C@@H]1CC[C@]2(C(=O)O)CC[C@]3(C)[C@H](CC[C@@H]4[C@@]5(C)CC[C@H](OCc6cn(-c7ccc([N+](=O)[O-])cc7)nn6)C(C)(C)[C@@H]5CC[C@]43C)[C@@H]12,36,52,28,20,43,48,43,63,51,52,72,49,44,54,59,54,78,68,65,87,inhibition of growth at 50 µM [21]: 62%; inhibition of growth at 50 µM [22]: 53%; inhibition of growth at 50 µM [23]: 72%; inhibition of growth at 50 µM [24]: 74%; inhibition of growth at 50 µM [25]: 94%; inhibition of growth at 50 µM [26]: 72%; inhibition of growth at 50 µM [27]: 93%; IC50 [28]: 28 µM; IC50 [29]: 15 µM; IC50 [30]: 8 µM; IC50 [31]: 38 µM; IC50 [32]: 15 µM; IC50 [33]: 13 µM; IC50 [34]: 24 µM; IC50 [35]: 4.5 µM; IC50 [36]: 9 µM
C=C(C)[C@@H]1CC[C@]2(C(=O)O)CC[C@]3(C)[C@H](CC[C@@H]4[C@@]5(C)CC[C@H](OCc6cn(-c7ccc(Cl)cc7)nn6)C(C)(C)[C@@H]5CC[C@]43C)[C@@H]12,46,5,52,42,28,22,28,61,50,53,20,59,63,43,40,43,74,69,66,32,inhibition of growth at 50 µM [21]: 83%; inhibition of growth at 50 µM [22]: 80%; inhibition of growth at 50 µM [23]: 55%; inhibition of growth at 50 µM [24]: 53%; inhibition of growth at 50 µM [25]: 96%; inhibition of growth at 50 µM [26]: 55%; inhibition of growth at 50 µM [27]: 94%; IC50 [28]: 13 µM; IC50 [29]: 8 µM; IC50 [30]: > 50 µM; IC50 [31]: 15 µM; IC50 [32]: 44 µM; IC50 [33]: 43 µM; IC50 [34]: 34 µM; IC50 [35]: 5.5 µM; IC50 [36]: 10 µM
C=C(C)[C@@H]1CC[C@]2(C(=O)O)CC[C@]3(C)[C@H](CC[C@@H]4[C@@]5(C)CC[C@H](OCc6cn(-c7ccc(CC#N)cc7)nn6)C(C)(C)[C@@H]5CC[C@]43C)[C@@H]12,17,44,32,42,45,42,30,46,43,27,81,57,98,69,48,61,96,95,56,83,inhibition of growth at 50 µM [21]: 60%; inhibition of growth at 50 µM [22]: 99%; inhibition of growth at 50 µM [23]: 71%; inhibition of growth at 50 µM [24]: 64%; inhibition of growth at 50 µM [25]: 98%; inhibition of growth at 50 µM [26]: 68%; inhibition of growth at 50 µM [27]: 96%; IC50 [28]: 46 µM; IC50 [29]: 25 µM; IC50 [30]: 13 µM; IC50 [31]: 12 µM; IC50 [32]: 13 µM; IC50 [33]: 32 µM; IC50 [34]: 23 µM; IC50 [35]: 11 µM; IC50 [36]: 12 µM
